From PMC5428017, “Targeting to the non-genomic activity of retinoic acid receptor-gamma by acacetin in hepatocellular carcinoma” (Scientific Reports, 2017) come the findings set out here.

Each structure is given as a SMILES string. Where a chain is given by its changes, count along the chain named.

The target in data set [1] is T1, RARβ (Homo sapiens, UniProt P10826).
T1 construct: gene RARB; RARβ LBD
T1 sequence (P10826 183-417 limits assumed): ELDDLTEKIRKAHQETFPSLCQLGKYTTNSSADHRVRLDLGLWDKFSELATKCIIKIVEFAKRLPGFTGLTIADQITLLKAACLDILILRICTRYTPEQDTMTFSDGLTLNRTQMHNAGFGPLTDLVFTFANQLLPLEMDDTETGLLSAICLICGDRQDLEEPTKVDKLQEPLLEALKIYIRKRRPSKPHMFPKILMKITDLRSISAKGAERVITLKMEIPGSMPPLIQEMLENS
The data set can be described thus: competitive radioligand displacement of [3H]atRA from RARβ LBD. The class given is binding. (In a radioligand displacement assay an active substance lowers the binding of a labelled ligand.)

Data set [2] addresses T2, retinoic acid receptor-γ (RARγ) (Homo sapiens, UniProt P13631, R278A).
T2 construct: gene RARG; Gal4-RARγ/R278A
T2 sequence (P13631 185-419 R278A limits assumed): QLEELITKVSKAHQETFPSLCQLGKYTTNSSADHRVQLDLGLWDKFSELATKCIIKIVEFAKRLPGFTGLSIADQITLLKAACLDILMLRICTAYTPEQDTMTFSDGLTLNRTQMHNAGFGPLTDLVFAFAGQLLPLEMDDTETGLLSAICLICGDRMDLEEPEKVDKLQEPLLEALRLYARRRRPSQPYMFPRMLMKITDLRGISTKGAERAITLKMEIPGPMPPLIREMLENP
The data set can be described thus: Gal4-RARγ luciferase reporter in HEK293T cells, […] atRA. The class given is cell-based. The following applies: 0.1 µM. A general note: In a reporter assay the amount or activity of a reporter protein is the signal.

Data set [3] concerns the target T3, RARα (Homo sapiens, UniProt P10276).
T3 construct: gene RARA; RARα LBD
T3 sequence (P10276 183-417 limits assumed): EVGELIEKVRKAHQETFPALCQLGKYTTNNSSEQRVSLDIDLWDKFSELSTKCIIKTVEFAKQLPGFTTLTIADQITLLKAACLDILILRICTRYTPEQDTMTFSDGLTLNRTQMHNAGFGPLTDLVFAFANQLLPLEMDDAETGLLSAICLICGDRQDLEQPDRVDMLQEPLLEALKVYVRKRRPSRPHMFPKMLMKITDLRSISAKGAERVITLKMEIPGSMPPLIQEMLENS
The data set can be described thus: competitive radioligand displacement of [3H]atRA from RARα LBD. The format is binding.

The target of data set [4] is T4, retinoic acid receptor-γ (RARγ) (Homo sapiens, UniProt P13631).
T4 construct: gene RARG; RARγ LBD
T4 sequence (P13631 185-419 limits assumed): T2 sequence (P13631 185-419 R278A limits assumed) with A94R
The data set can be described thus: competitive radioligand displacement of [3H]atRA from purified RARγ LBD; supported by GFP-RARγ fluorescence quenching in cells and reporter antagonism. The class given is binding.

Take `CC1=C(/C=C/C(C)=C/C=C/C(C)=C/C(=O)O)C(C)(C)CCC1` [atRA]: the “competitive radioligand displacement of [3H]atRA from RARβ LBD” value in data set [1] was “both [^3H]atRA-bound complexes could be displaced by unlabeled atRA but not by acacetin”. In addition, the “Gal4-RARγ luciferase reporter in HEK293T cells, 10^-7 M atRA” value in data set [2] is on record as 22 fold activation. Moreover, the “competitive radioligand displacement of [3H]atRA from RARα LBD” value in data set [3] was “both [^3H]atRA-bound complexes could be displaced by unlabeled atRA but not by acacetin”.
A word on the IC50: it is the concentration that inhibits the measured activity by half. High values mean weaker potency in that assay, low ones greater potency in that assay. On to `COc1ccc(-c2cc(=O)c3c(O)cc(O)cc3o2)cc1` [acacetin, 5,7-dihydroxy-4′-methoxyflavone], for which the IC50 in data set [4] came out at 12.8 µM.
